Earlier results in patent US8227223B2, “Method and apparatus for facilitating evaluating migration of cells in vitro” (Applied Biophysics, Inc., priority 2009, dated 2012).

Tests used:
muscarinic receptor = settings: CHO cells over expressing the muscarinic receptor
β-adrenergic receptor = settings: BAEC endothelial cells
[1] = system: confluent bovine aortic endothelial cells

C[N+](C)(C)CCOC(N)=O [carbachol]
change of impedance upon binding of the agonist (muscarinic receptor; impedance at 4000 Hz): doubling of impedance

CC(C)NCC(O)c1ccc(O)c(O)c1 (stereo not shown) [isoproterenol]
change of impedance of the cell layer upon agonist binding (β-adrenergic receptor): readily measured increase in the impedance

CN1CCN(CC(=O)N2c3ccccc3C(=O)Nc3cccnc32)CC1 [pirenzepine]
inhibition of the carbachol impedance response (muscarinic receptor; antagonist against carbachol): can be inhibited

thrombin
change of impedance upon exposure (barrier function) [1]: drop in impedance
